According to US8735384B2, “Amino heteroaryl compounds as beta-secretase modulators and methods of use” (Amgen Inc., priority 2010, dated 2014):
pIC50: −log10 of the molar value.

Columns and labels:
BACE1 = BACE1 (Homo sapiens, UniProt P56817); experiment: In vitro enzymatic BACE FRET assay; format: biochemical; conditions: beta secretase enzyme 0.2 nM, FRET substrate 50 nM, pH 4.2; read-out: BACE1 FRET assay (IC50 class)
Protocol: In Vitro Enzymatic BACE FRET (Fluorescence Resonance Energy Transfer) Assay (Enzyme Assay Data in Table 1)
The assay buffer used in this screen is 0.05 M acetate, pH 4.2, 10% DMSO final, 100 uM genapol (which is a nonionic detergent, below its Critical Micelle Concentration). The beta secretase enzyme (0.2 nM) is pre-incubated for one hour with inhibitors, typically in about 1 uL of DMSO according to a serial dilution, are added thereto. The assay is effectively started by the addition of FRET substrate (50 nM) and the combination is incubated for one hour. The FRET assay is terminated with by addition of Tris buffer, which raises the pH to neutrality, and the fluorescence is determined. The FRET substrate is a peptide with commercially available fluorophore and quencher, on opposite sides of the BACE cleavage site. Proteolytic cleavage of the FRET substrate releases quenching of fluorescence (excitation […] and […]).
Of the compounds tested, the in-vitro BACE FRET enzyme data for each of Examples 1-220, where available at the time of filing this application, is provided in Table 1.

[1] = tested on: Aβ40 in conditioned medium of cells stably expressing Amyloid Precursor Protein (APP); experiment: In vitro BACE cell-based assay (HEK cell assay), Aβ40 sandwich ELISA; conditions: Homo sapiens, HEK293, 24 h, inhibition of Aβ40, 24 h incubation, read-out: HEK cell assay (IC50 class)
Protocol: In Vitro BACE Cell-Based Assay:
The cell-based assay measures inhibition or reduction of Aβ40 in conditioned medium of test compound treated cells expressing amyloid precursor protein.
Cells stably expressing Amyloid Precursor Protein (APP) were plated at a density of 40K cells/well in 96 well plates (Costar). The cells were cultivated for 24 hours at 37° C. and 5% CO2 in DMEM supplemented with 10% FBS. The test compounds were then added to cells in 10-point dose response concentrations with the starting concentration being either 100 μM or 10 μM. The compounds were diluted from stock solutions in DMSO and the final DMSO concentration of the test compounds on cells was 0.1%. After 24 h of incubation with the test compounds the supernatant conditioned media was collected and the Aβ 40 levels were determined using a sandwich ELISA. The IC50 of the compound was calculated from the percent of control or percent inhibition of Aβ 40 as a function of the concentration of the test compound.
The sandwich ELISA to detect Aβ 40 was performed in 96 well microtiter plates, which were pre-treated with goat anti-rabbit IgG (Pierce). The capture and detecting antibody pair that were used to detect Aβ 40 from cell supernatants were affinity purified pAb40 (Biosource) and biotinylated 6E10 (Signet Labs Inc.), respectively. The optimal concentration for the pAb40 antibody was 3 μg/ml in Superblock/TBS (Pierce) that was supplemented with 0.05% Tween 20 (Sigma). Optimal concentration for the detection antibody 6E10-biotinylated was 0.5 μg/ml in Superblock/TBS (Pierce) that had been supplemented with 2% normal goat serum and 2% normal mouse serum.
Cellular supernatants were incubated with the capture antibody for 3 h at 4° C., followed by 3 wash steps in TBS-tween (0.05%). The detecting antibody incubation was for 2 h at 4° C., again followed by the wash steps as described previously. The final readout of the ELISA is Time-Resolved Fluorescence (counts per minute) using Delfia reagents Streptavidin-Europium and Enhancement solutions (Perkin Elmer) and the Victor 2 multilabel counter (Perkin Elmer).

Chain of BACE1 (P56817 46-501, species assumed): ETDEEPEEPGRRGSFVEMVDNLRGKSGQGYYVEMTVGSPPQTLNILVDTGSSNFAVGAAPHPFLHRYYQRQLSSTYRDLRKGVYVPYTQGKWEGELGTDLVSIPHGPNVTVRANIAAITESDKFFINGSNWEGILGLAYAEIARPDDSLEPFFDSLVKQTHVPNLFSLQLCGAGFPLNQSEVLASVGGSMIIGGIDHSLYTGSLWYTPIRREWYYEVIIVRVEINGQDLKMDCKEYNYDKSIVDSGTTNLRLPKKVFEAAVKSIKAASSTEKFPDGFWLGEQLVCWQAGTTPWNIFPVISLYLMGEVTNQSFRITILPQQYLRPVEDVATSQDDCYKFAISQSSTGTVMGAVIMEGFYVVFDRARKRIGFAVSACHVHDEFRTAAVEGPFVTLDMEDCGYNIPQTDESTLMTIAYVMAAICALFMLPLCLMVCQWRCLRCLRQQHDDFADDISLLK

SMILES | pIC50 (BACE1) | pIC50 [1]
Cc1cnc(-c2cccc(C)c2-c2ccc3nc(N)c(N4CCOCC4)cc3c2)o1 [Example 32, 6-(2-methyl-6-(5-methyloxazol-2-yl)phenyl)-3-morpholinoquinolin-2-amine] | 5.30 to 6.00 | < 5.30
Cc1cccc(C(O)c2cnccn2)c1-c1ccc2nc(N)c(N3CCOCC3)cc2c1 (stereo not shown) [Example 36, (2-(2-amino-3-morpholinoquinolin-6-yl)-3-methylphenyl)(pyrazin-2-yl)methanol] | 5.30 to 6.00 | 5.30 to 6.00
Cc1cccc(Cc2cnccn2)c1-c1ccc2nc(N)c(N3CCOCC3)cc2c1 [Example 37, 6-(2-methyl-6-(pyrazin-2-ylmethyl)phenyl)-3-morpholinoquinolin-2-amine] | 6.00 to 6.30 | 5.30 to 6.00
Cc1cccc(C(=O)N2CCOC(C)(C)C2)c1-c1ccc2nc(N)c(N3CCOCC3)cc2c1 [Example 43, (2-(2-amino-3-morpholinoquinolin-6-yl)-3-methylphenyl)(2,2-dimethylmorpholino)methanone] | 6.30 to 7.00 | 5.30 to 6.00
Cc1cccc(N2CCOCC2=O)c1-c1ccc2nc(N)c(N3CCOCC3)cc2c1 [Example 48, 4-(2-(2-amino-3-morpholinoquinolin-6-yl)-3-methylphenyl)morpholin-3-one] | 6.00 to 6.30 | 5.30 to 6.00
Cc1cccc(N2CC(C)(C)OCC2=O)c1-c1ccc2nc(N)c(N3CCOCC3)cc2c1 [Example 49, 4-(2-(2-amino-3-morpholinoquinolin-6-yl)-3-methylphenyl)-6,6-dimethylmorpholin-3-one] | 6.30 to 7.00 | 5.30 to 6.00
Cc1cccc(N(C)C(=O)CC(C)(C)C)c1-c1ccc2nc(N)c(N3CCOCC3)cc2c1 [Example 50, N-(2-(2-amino-3-morpholinoquinolin-6-yl)-3-methylphenyl)-N,3,3-trimethylbutanamide] | 6.00 to 6.30 | 5.30 to 6.00
CC(C)(C)COc1ccccc1-c1ccc2nc(N)c(N3CCOCC3)cc2c1 [Example 51, 3-morpholino-6-(2-(neopentyloxy)phenyl)quinolin-2-amine] | 6.00 to 6.30 | < 5.30
Nc1nc2ccc(-c3ccccc3OCc3ccccc3)cc2cc1N1CCOCC1 [Example 53, 6-(2-(benzyloxy)phenyl)-3-morpholinoquinolin-2-amine] | 6.30 to 7.00 | < 5.30
Cc1cccc(OC2CCOC2)c1-c1ccc2nc(N)c(N3CCOCC3)cc2c1 (stereo not shown) [Example 54, 6-(2-methyl-6-(tetrahydrofuran-3-yloxy)phenyl)-3-morpholinoquinolin-2-amine] | 6.00 to 6.30 | 5.30 to 6.00
Cc1cccc(Nc2ccccc2)c1-c1ccc2nc(N)c(N3CCOCC3)cc2c1 [Example 55, 6-(2-methyl-6-(phenylamino)phenyl)-3-morpholinoquinolin-2-amine] | 6.30 to 7.00 | < 5.30
Cc1cccc(C(=O)N2CCCC2)c1-c1ccc2nc(N)c(C3=CCCC3)cc2c1 [Example 57, (2-(2-amino-3-cyclopentenylquinolin-6-yl)-3-methylphenyl)(pyrrolidin-1-yl)methanone] | 6.30 to 7.00 | 5.30 to 6.00
Cc1cccc(C(=O)N2CCOCC2)c1-c1ccc2nc(N)c(N3CCOCC3)cc2c1 [Example 59, (2-(2-amino-3-morpholinoquinolin-6-yl)-3-methylphenyl)(morpholino)methanone] | 6.30 to 7.00 | 5.30 to 6.00

Results, then the compound that gave them:

pIC50 (BACE1) | pIC50 [1] | SMILES
6.30 to 7.00 | 5.30 to 6.00 | Cc1cccc(-c2ncc3ccccn23)c1-c1ccc2nc(N)c(N3CCOCC3)cc2c1 [Example 30, 6-(2-(imidazo[1,5-a]pyridin-3-yl)-6-methylphenyl)-3-morpholinoquinolin-2-amine]
6.30 to 7.00 | < 5.30 | Cc1coc(-c2cccc(C)c2-c2ccc3nc(N)c(N4CCOCC4)cc3c2)n1 [Example 31, 6-(2-methyl-6-(4-methyloxazol-2-yl)phenyl)-3-morpholinoquinolin-2-amine]
6.30 to 7.00 | 5.30 to 6.00 | Nc1nc2ccc(-c3ccccc3-n3ncc4c3CCCC4)cc2cc1N1CCOCC1 [Example 33, 3-morpholino-6-(2-(4,5,6,7-tetrahydro-1H-indazol-1-yl)phenyl)quinolin-2-amine]
> 7.00 | 5.30 to 6.00 | Cc1cccc(-n2cc(Cl)c(C)n2)c1-c1ccc2nc(N)c(N3CCOCC3)cc2c1 [Example 34, 6-(2-(4-chloro-3-methyl-1H-pyrazol-1-yl)-6-methylphenyl)-3-morpholinoquinolin-2-amine]
> 7.00 | 6.30 to 7.00 | Cc1cccc(C(=O)c2ccccn2)c1-c1ccc2nc(N)c(C3CCOCC3)cc2c1 [Example 38, (2-(2-amino-3-(tetrahydro-2H-pyran-4-yl)quinolin-6-yl)-3-methylphenyl)(pyridin-2-yl)methanone]
> 7.00 | 6.00 to 6.30 | Cc1cccc(C(=O)N2CCCC2)c1-c1cc2cc(N3CCOCC3)c(N)nc2cc1F [Example 39, (2-(2-amino-7-fluoro-3-morpholinoquinolin-6-yl)-3-methylphenyl)(pyrrolidin-1-yl)methanone]
> 7.00 | 5.30 to 6.00 | Cc1cccc(C#CC(C)(C)C)c1-c1ccc2nc(N)c(N3CCOCC3)cc2c1 [Example 40, 6-(2-(3,3-dimethylbut-1-ynyl)-6-methylphenyl)-3-morpholinoquinolin-2-amine]
> 7.00 | 6.00 to 6.30 | Cc1cccc(C(=O)N(C)CC(C)(C)C)c1-c1ccc2nc(N)c(N3CCOCC3)cc2c1 [Example 41, 2-(2-amino-3-morpholinoquinolin-6-yl)-N,3-dimethyl-N-neopentylbenzamide]
> 7.00 | 6.00 to 6.30 | Nc1nc2ccc(-c3c(Cl)cccc3C(=O)N3CCCC3)cc2cc1N1CCOCC1 [Example 42, (2-(2-amino-3-morpholinoquinolin-6-yl)-3-chlorophenyl)(pyrrolidin-1-yl)methanone]
> 7.00 | 6.30 to 7.00 | CC(C)(C)C#Cc1cccc(C(=O)N2CCCC2)c1-c1ccc2nc(N)c(N3CCOCC3)cc2c1 [Example 44, (2-(2-amino-3-morpholinoquinolin-6-yl)-3-(3,3-dimethylbut-1-ynyl)phenyl)(pyrrolidin-1-yl)methanone]
> 7.00 | > 7.00 | CC(C)(C)CCc1cccc(C(=O)N2CCCC2)c1-c1ccc2nc(N)c(N3CCOCC3)cc2c1 [Example 45, (2-(2-amino-3-morpholinoquinolin-6-yl)-3-(3,3-dimethylbutyl)phenyl)(pyrrolidin-1-yl)methanone]
> 7.00 | 6.30 to 7.00 | CC(C)(C)CC(=O)c1cccc(C(=O)N2CCCC2)c1-c1ccc2nc(N)c(N3CCOCC3)cc2c1 [Example 46, 1-(2-(2-amino-3-morpholinoquinolin-6-yl)-3-(pyrrolidine-1-carbonyl)phenyl)-3,3-dimethylbutan-1-one]
> 7.00 | > 7.00 | CC(C)(C)CCc1cccc(C(=O)N2CC[C@@H](F)C2)c1-c1ccc2nc(N)c(N3CCOCC3)cc2c1 [Example 47, (R)-(2-(2-amino-3-morpholinoquinolin-6-yl)-3-(3,3-dimethylbutyl)phenyl)(3-fluoropyrrolidin-1-yl)methanone]
> 7.00 | < 5.30 | Cc1cccc(OCC(C)(C)C)c1-c1ccc2nc(N)c(N3CCOCC3)cc2c1 [Example 52, 6-(2-methyl-6-(neopentyloxy)phenyl)-3-morpholinoquinolin-2-amine]
> 7.00 | > 7.00 | Cc1cccc(C(=O)N2CCCC2)c1-c1ccc2nc(N)c(N3C[C@@H]4C[C@H]3CO4)cc2c1 [Example 56, (2-(2-amino-3-((1S,4S)-2-oxa-5-azabicyclo[2.2.1]heptan-5-yl)quinolin-6-yl)-3-methylphenyl)(pyrrolidin-1-yl)methanone]
> 7.00 | 6.00 to 6.30 | Cc1cccc(C(=O)N2CCCCC2)c1-c1ccc2nc(N)c(N3CCOCC3)cc2c1 [Example 58, (2-(2-amino-3-morpholinoquinolin-6-yl)-3-methylphenyl)(piperidin-1-yl)methanone]
